# Results reported in US20230218706A1 (9 Meters Biopharma, Inc., priority 2020, published 2023).
# “Also recorded” adds a separate entry of the source. Where a SMILES comes first, the peptide text is derived from it. Where no end group is shown, it is not given here. [ ]: non-standard residue; d: D form.
# Columns and labels:
# [1] = tested on: Celiac disease symptoms; settings: cited from earlier work
# [2] = tested on: pig ischemic jejunum tissue; assay: Ex vivo assessment of peptide stability (degradation by brush border enzymes) in pig ischemic jejunum tissue; settings: for peptide concentration, T = 0 mins after addition / peptide concentration, T = 30 mins after addition / peptide concentration, T = 120 mins after addition: 1 μm addition of each peptide to pig ischemic jejunum tissue
# Source text: (§1) After 45-minutes of ischemia, the pigs were euthanized, and intestinal segments were collected. Non-ischemic control tissue was also collected at this time. Following tissue collection, the seromuscular layer was stripped from the mucosa while the tissue was bathed in oxygenated (95% 02, 5% CO2) Ringer's solution (in mmol/L: 154 Na^+, 6.3 K^+, 137 Cl^−, and 24 HCO3−; pH 7.4). The mucosa was subsequently mounted in 1.1-cm^2 aperture Ussing chambers, as described in previous studies, which are herein incorporated by reference in their entireties, Moeser, A. J.; Nighot, P. K.; Ryan, K. A.; Wooten, J. G.; Blikslager, A. T. Prostaglandin-mediated inhibition of Na+/H+ exchanger isoform 2 stimulates recovery of barrier function in ischemia-injured intestine. Am J Physiol Gastrointest Liver Physiol (2006), 291, G885-94; and Jin, Y.; Blikslager, A. T. Myosin light chain kinase mediates intestinal barrier dysfunction via occludin endocytosis during anoxia/reoxygenation injury. Am J Physiol Cell Physiol (2016), 311, C996-C1004. Tissues were bathed on both the mucosal and serosal sides with 10 mL Ringer's solution. The mucosal bathing solution contained 10 mM mannitol while the serosal side was osmotically balanced with 10 mM glucose. Bathing solutions were oxygenated (95% O2, 5% CO2) and circulated in water-jacketed reservoirs. The spontaneous potential difference (PD) was measured using Ringer-agar bridges connected to calomel electrodes, and the PD was short-circuited through Ag—AgCl electrodes using a voltage clamp that was corrected for fluid resistance. TER (Ω·cm^2) was calculated from the spontaneous PD and short-circuit current (Isc). If the spontaneous PD was between −1.0 and 1.0 mV, tissues were current clamped at ±100 μA for 5-seconds, and the PD was recorded. Isc and PD were recorded at 15-minute intervals over a 4-hour experiment. After tissues were mounted on Ussing chambers, all tissues were allowed to acclimate for a period of 30-minutes to establish stable baseline measurements, after which experimental treatments of larazotide or larazotide analogs was added to the apical chamber. Tissues were monitored by measuring transepithelial resistance (TER) for 240 min. Samples of Ringers solution were collected at select timepoints and quenched with 5% trifluoroacetic acid (TFA) solution (in 80% acetonitrile (ACN): 20% DI water). Quenched samples were centrifuged at 13000×g for 5-minutes and the resulting supernatants were stored at −80° C. for future MS analysis.
# The recovery effects of Analogs #5 and 6 were also compared in an ex vivo test for recovery of ischemic-injured pig jejunum tissue. […] Analogs #5 and 6 were further compared for peptide stability—Analog #5 (D-Val), Analog #6 (All D) and larazotide concentrations were measured at TO, 30, and 120 minutes after 1 μm addition of each to pig ischemic jejunum tissue.
# A set of experiments was conducted in order to compare the all-D amino acid larazotide analog (Analog #6) with larazotide in terms of degradation profiles, recovery effects, and dose response profiles.
# [3] = tested on: ischemic-injured porcine jejunum; assay: Ex vivo recovery of transepithelial electrical resistance (TEER/TER) of ischemic-injured porcine jejunum in Ussing chambers; format: cell-based, pig; settings: for effect of excess fragment on action of Analog #6: 10 μM fragment applied 30 mins before 0.1 μM Analog #6 (100 fold excess), FIGS. 8-10; for induction of recovery of ischemic-injured tissue: FIG. 2; for activity as tight junction regulators: fragment alone; for effect of fragment on larazotide activity: fragment mixed with full-length larazotide (10 μM fragment + 1 μM larazotide, FIG. 7)
# Source text: In order to evaluate the activity profile of larazotide and larozotide analogs, an ex vivo assay was employed measuring transepithelial electrical resistance (TEER) of ischemic-injured porcine jejunum.
# Several larazotide analogs were initially tested in an ex vivo model, measuring the recovery of an ischemic-injured pig jejunum tissue.
# Six-to-eight-week-old Yorkshire crossbred pigs of either sex were individually housed and maintained on a commercially pelleted feed. Pigs were held off feed for 12 hours prior to experimental surgery. General anesthesia was induced with xylazine (1.5 mg/kg IM), ketamine (11 mg/kg IM), followed by mask delivery of isoflurane vaporized in 100% 02. Pigs were subsequently orotracheally intubated, followed by continued delivery of isoflurane in 100% 02 to maintain a surgical plane of anesthesia. An intravenous catheter was placed in an ear vein for delivery of fluids during surgery (lactated Ringer solution, 15 m1·kg^−1h^−1, IV). The distal jejunum was approached via a ventral midline incision. Jejunal segments were delineated by ligating the intestine at 8-10 cm intervals with 2-0 silk, and were subjected to segmental ischemia by ligating the local mesenteric blood supply with 2-0 silk for 45-minutes.
# as §1, with “chamber.” for “chamber. Tissues were monitored by measuring transepithelial resistance (TER) for 240 min. Samples of Ringers solution were collected at select timepoints and quenched with 5% trifluoroacetic acid (TFA) solution (in 80% acetonitrile (ACN): 20% DI water). Quenched samples were centrifuged at 13000×g for 5-minutes and the resulting supernatants were stored at −80° C. for future MS analysis.”
# [4] = tested on: BLM-induced pulmonary fibrosis model mice
compound,measurement,setting,value
"H-GGVLVQPG-OH [Larazotide, reference compound]",activity at higher doses in clinical trials,"[1]; higher doses (e.g., 1 mg and 2 mg doses)","attenuation of activity, or no activity at all"
same,reduction of Celiac disease symptoms,"[1]; lower doses (e.g., 0.5 mg dose)",significant benefit at reducing Celiac disease symptoms
same,"peptide concentration, T = 0 mins after addition",[2],0.508 µg/mL
same,"peptide concentration, T = 30 mins after addition",[2],0.212 µg/mL
same,"peptide concentration, T = 120 mins after addition",[2],0.007 µg/mL
same,dose-response of repair of ischemic-injured intestine (TEER),"[3]; FIG. 1, low, middle and high dose range",“bell-shaped” dose-dependent manner
Gly-(d)Val-(d)Leu-(d)Val-(d)Gln-(d)Pro-Gly [Analog A6F1],effect of excess fragment on action of Analog #6,[3],less significant impact on the action of the all-D amino acid larazotide analog
"CC(C)C[C@@H](NC(=O)[C@H](NC(=O)CNC(=O)CN)C(C)C)C(=O)N[C@@H](C(=O)N[C@H](CCC(N)=O)C(=O)N1CCC[C@@H]1C(=O)NCC(=O)O)C(C)C [Analog #6, H2N-GG(dV)(dL)(dV)(dQ)(dP)G-OH] (H-GG[dV][dL][dV][dQ][dP]G-OH)","peptide concentration, T = 0 mins after addition",[2],0.517 ug/ml ug/mL
same,"peptide concentration, T = 30 mins after addition",[2],0.436 µg/mL
same,"peptide concentration, T = 120 mins after addition",[2],0.086 µg/mL
same,resistance to brush border enzyme degradation,"[2]; jejunum epithelial brush border enzymes, in words (Table 2, FIG. 4)",significant resistance to brush border enzyme degradation as compared to larazotide and Analog #5; also recorded: significantly more resistant to degradation than larazotide
same,"lung fibrosis, Ashcroft grading of Masson's Trichrome-stained right lung sections","[4]; 1 mg/kg orally once daily Day 0 to 20, sacrifice Day 21, FIG. 18",less fibrosis than either the vehicle or larazotide samples
same,therapeutic effect in mouse model of pulmonary fibrosis,[4]; provided orally,better therapeutic effect than larazotide
same,dose response of repair of injured intestine (TER),"[3]; 0.01 μM, 0.1 μM, 1 μM and 10 μM, FIG. 6",did not exhibit the distinct bell-shaped dose-response of larazotide
same,recovery of TER,"[3]; 0.1 μM, FIG. 6",induced good recovery of TER
same,recovery of ischemic-injured intestine (transepithelial electrical resistance),"[3]; 1 μM, recovery period of 240 minutes, FIG. 5",induces recovery to substantially the same extent as larazotide
same,recovery effect on ischemic-injured pig jejunum tissue,"[3]; FIG. 3, Analog #6 compared with Analog #5",pronounced recovery effect as compared to Analog #5
(d)Val-(d)Leu-(d)Val-(d)Gln-(d)Pro-Gly [Analog A6F2],effect of excess fragment on action of Analog #6,[3],does not appear to be meaningfully blocked
H2N-VGGVLVQPG-OH (H-VGGVLVQPG-OH) [Analog #3],induction of recovery of ischemic-injured tissue,[3],no significant induction of recovery
"GVLVQPG [Fragment 1, reference compound]",activity as tight junction regulators,[3],inactive as tight junction regulators
same,effect of fragment on larazotide activity,[3],inhibit larazotide activity; also recorded: activity is completely abolished
"VLVQPG [Fragment 2, reference compound]",activity as tight junction regulators,[3],inactive as tight junction regulators
same,effect of fragment on larazotide activity,[3],inhibit larazotide activity; also recorded: activity is completely abolished
H2N-GGV(dL)VQPG-OH (H-GGV[dL]VQPG-OH) [Analog #1],induction of recovery of ischemic-injured tissue,[3],no significant induction of recovery
"CC(C)C[C@H](NC(=O)[C@H](NC(=O)CNC(=O)CN)C(C)C)C(=O)N[C@H](C(=O)N[C@@H](CCC(N)=O)C(=O)N1CCC[C@H]1C(=O)NCC(=O)O)C(C)C [Analog #5, H2N-GG(dV)LVQPG-OH] (H-GG[dV]LVQPG-OH)","peptide concentration, T = 0 mins after addition",[2],0.510 µg/mL
same,"peptide concentration, T = 30 mins after addition",[2],0.012 µg/mL
same,"peptide concentration, T = 120 mins after addition",[2],0.005 µg/mL
H2N-(dV)GGVLVQPG-OH (H-[dV]GGVLVQPG-OH; SMILES CC(C)C[C@H](NC(=O)[C@@H](NC(=O)CNC(=O)CNC(=O)[C@H](N)C(C)C)C(C)C)C(=O)N[C@H](C(=O)N[C@@H](CCC(N)=O)C(=O)N1CCC[C@H]1C(=O)NCC(=O)O)C(C)C) [Analog #2],induction of recovery of ischemic-injured tissue,[3],no significant induction of recovery
